From ChEMBL document CHEMBL1133802, “N,N'-bis[4-(N-alkylamidino)phenyl]homopiperazines as anti-Pneumocystis carinii agents” (2001) come the findings set out here.

Assay [1] relates to Pneumocystis carinii. Description: Percent of control growth of Pneumocystis carinii trophozoites was determined. It counts as functional. Also noted: concentration or dose not given beside the values.
The next assay deals with Nucleic Acid. The assay can be described thus: Binding affinity for calf thymus DNA measured as change in melting temperature. The format is nucleic-acid assay. The settings on record: Bos taurus.
Assay [2] relates to Pneumocystis carinii. Description: Anti-P. carinii activity determined as change in number of Pneumocystis carinii trophozoites from day 1 through day 7 in culture at 1 uM. The format is functional.
The nature of assay [3]: Binding affinity for Poly (dA-dT) measured as change in melting temperature.
For assay [4], the system named is Pneumocystis carinii. Description: Anti-P. carinii activity determined as change in number of Pneumocystis carinii trophozoites from day 1 through day 5 in culture at 1 uM. The format is functional.

`COc1cc(Cc2cnc(N)nc2N)cc(OC)c1OC.Cc1cc(NS(=O)(=O)c2ccc(N)cc2)no1` [CO-TRIMOXAZOLE] showed a Growth in the assay with Pneumocystis carinii [1] of under 0%.

For the compound `CC(C)/N=C(\N)c1ccc(N2CCCN(c3ccc(/C(N)=N/C(C)C)cc3)CC2)cc1`, the results for the ΔTm (with Nucleic Acid; in assay [3]) were 13.8 °C and 20 °C, respectively. Moreover, in the assay on Pneumocystis carinii [2], the “Change in No. of trophozoites x 10E-5” value is 20.2. The same compound registered a Growth with Pneumocystis carinii [1] of 61%.

For `N=C(NC1CC1)c1ccc(N2CCCN(c3ccc(C(=N)NC4CC4)cc3)CC2)cc1`, the ΔTm stood at 15.3 °C in the assay on Nucleic Acid and 23.6 °C in assay [3]. For the same compound, in the assay with Pneumocystis carinii [2], the “Change in No. of trophozoites x 10E-5” value is 10.92. This compound registered a Growth in the assay on Pneumocystis carinii [1] of 33%.

`N=C(N)c1ccc(OCCCCCOc2ccc(C(=N)N)cc2)cc1` [PENTAMIDINE]: the ΔTm was found to be 11.1 °C in the assay with Nucleic Acid and 20.6 °C in assay [3]. Further, the “Change in No. of trophozoites x 10E-5” value in the assay on Pneumocystis carinii [4] is -3.98. Further, the Growth with Pneumocystis carinii [1] is recorded as under 0%.

Consider `N=C(NCCO)c1ccc(N2CCCN(c3ccc(/C(N)=N/CCO)cc3)CC2)cc1`, for which the ΔTm was 11.1 °C with Nucleic Acid and 14.7 °C in assay [3]. In the assay with Pneumocystis carinii [2], the “Change in No. of trophozoites x 10E-5” value is reported as 33.62. This compound also yielded a Growth in the assay on Pneumocystis carinii [1] of 101%.

For `N=C(NC1CCCC1)c1ccc(N2CCCN(c3ccc(C(=N)NC4CCCC4)cc3)CC2)cc1`, the values for the ΔTm (with Nucleic Acid; in assay [3]) were 17.9 °C and 26.5 °C, respectively. Moreover, the “Change in No. of trophozoites x 10E-5” value with Pneumocystis carinii [2] was 34.32. The Growth with Pneumocystis carinii [1] is 103%.

On to `CCCCNC(=N)c1ccc(N2CCCN(c3ccc(C(=N)NCCCC)cc3)CC2)cc1`, for which the ΔTm in the assay with Nucleic Acid was 11.8 °C; in assay [3], 13.3 °C. The “Change in No. of trophozoites x 10E-5” value in the assay with Pneumocystis carinii [2] stood at 19.19. Besides, the Growth in the assay on Pneumocystis carinii [1] was found to be 58%.

Consider `N=C(NCCCO)c1ccc(N2CCCN(c3ccc(/C(N)=N/CCCO)cc3)CC2)cc1`, for which the results for the shift in melting temperature (ΔTm) (in the assay on Nucleic Acid; in assay [3]) were 17.4 °C and 23.6 °C, respectively. In the assay with Pneumocystis carinii [2], the “Change in No. of trophozoites x 10E-5” value is reported as 34.79. Besides, the Growth in the assay with Pneumocystis carinii [1] is listed as 105%.

With `CC(C)(C)/N=C(\N)c1ccc(N2CCCN(c3ccc(/C(N)=N/C(C)(C)C)cc3)CC2)cc1`, the results for the ΔTm (in the assay on Nucleic Acid; in assay [3]) were 4.1 °C and 7.4 °C, respectively. Also, in the assay on Pneumocystis carinii [2], the “Change in No. of trophozoites x 10E-5” value worked out at 21.57. In the assay with Pneumocystis carinii [1], this compound showed a Growth of 65%.

For `c1cc(N2CCCN(c3ccc(C4=NCCCN4)cc3)CC2)ccc1C1=NCCCN1`, the ΔTm in the assay with Nucleic Acid turned out to be 15.5 °C; in assay [3] it was 21.3 °C. The “Change in No. of trophozoites x 10E-5” value in the assay on Pneumocystis carinii [2] was found to be 10.73. For the same compound, the Growth in the assay with Pneumocystis carinii [1] turned out to be 32%.

Take `N=C(N)c1ccc(N2CCCN(c3ccc(C(=N)N)cc3)CC2)cc1`: the ΔTm amounted to 15 °C with Nucleic Acid and 23.1 °C in assay [3]. In addition, the “Change in No. of trophozoites x 10E-5” value in the assay with Pneumocystis carinii [4] is listed as -3.32. The same compound came in with a Growth in the assay with Pneumocystis carinii [1] of under 0%.
